Results on 7 molecules are retold here after PubChem BioAssay (NCI).

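The compound was tested at five concentrations on cells cultured in 96-well plates, with a 48-hour exposure period. Here, GI50 denotes the concentration required for 50% inhibition of growth. TGI denotes the concentration required for complete inhibition of growth.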

Some test systems named below: A498 renal; CAKI-1 renal; HCC-2998 colon; HCT-15 colon; K-562 leukemia; M14 melanoma; NCI-H522 lung; RXF 393 renal; SF-295 CNS; SR leukemia.
What all share (test): DTP human tumour cell line panel, 48 h

In the case of `CC1=Cc2cc3[n-]c(cc4nc(cc5[n-]c(cc1n2)cc5C)C(C)=C4CCC(=O)O)c(CCC(=O)O)c3C.[Pd+2]`, the GI50 (commonly the concentration at which growth is held to half of that of the control) is 12.6 µM in the assay on A498 renal; 27 µM with CAKI-1 renal; 10.2 µM in the assay with HCC-2998 colon; 18.4 µM with HCT-15 colon; 11 µM in the assay on K-562 leukemia; 12.7 µM in the assay with M14 melanoma. Also, the GI50 was 17.9 µM in the assay on RXF 393 renal, 17.5 µM with SF-295 CNS and 2.82 µM in the assay on SR leukemia. Moreover, the TGI (commonly the concentration giving total growth inhibition) with A498 renal was 29.8 µM; in the assay on CAKI-1 renal it was 48.6 µM; in the assay with HCC-2998 colon, 28.8 µM; with HCT-15 colon it was 42.5 µM; in the assay on K-562 leukemia, more than 37 µM; in the assay on M14 melanoma, 31.1 µM. The TGI is more than 26.7 µM in the assay on NCI-H522 lung, more than 37.9 µM in the assay on RXF 393 renal, 36.3 µM in the assay on SF-295 CNS and 9.75 µM in the assay on SR leukemia.
With `C=C1CC[C@@H]2C(C)(C)CCC[C@@]2(C)[C@@H]1Cc1cc(O)ccc1O`, the TGI in the assay with A498 renal came out at 27.6 µM; in the assay on CAKI-1 renal it was 22.2 µM; in the assay with HCC-2998 colon, 28 µM; in the assay with HCT-15 colon, 12.3 µM; in the assay with K-562 leukemia, 16.7 µM; in the assay on M14 melanoma it was 24.3 µM. Also, the TGI in the assay with NCI-H522 lung is 3.66 µM; in the assay on RXF 393 renal, 5.18 µM; in the assay with SF-295 CNS, 28.2 µM; with SR leukemia, 12.1 µM.
For the molecule `S=C(Nc1ccc(Cl)cc1)Nc1ccc(-c2nc3ccccc3[nH]2)cc1`, the GI50 was 23.6 µM with A498 renal; 2.7 µM with CAKI-1 renal; 1.39 µM in the assay with HCC-2998 colon; 3.82 µM in the assay on HCT-15 colon; 5.2 µM in the assay on K-562 leukemia; 7.54 µM with M14 melanoma. For the same molecule, the GI50 is 4.63 µM in the assay on NCI-H522 lung, 5.86 µM with RXF 393 renal, 0.757 µM with SF-295 CNS and 8.07 µM in the assay on SR leukemia. Moreover, the TGI in the assay on A498 renal is 55.5 µM; in the assay on CAKI-1 renal, 12.5 µM; with HCC-2998 colon it was 2.69 µM; in the assay with HCT-15 colon, 12.9 µM; in the assay on K-562 leukemia it was 31.3 µM; in the assay with M14 melanoma, more than 42 µM. The TGI was 13.3 µM with NCI-H522 lung, more than 20.5 µM with RXF 393 renal, 4.24 µM with SF-295 CNS and more than 21.5 µM in the assay with SR leukemia.
As for `CC(=O)Nc1ccc(C2[C@H]3C(=O)N(c4ccc(Cc5ccc(N6C(=O)[C@@H]7ON(c8ccccc8)C(c8ccc(NC(C)=O)cc8)[C@@H]7C6=O)cc5)cc4)C(=O)[C@H]3ON2c2ccccc2)cc1` (stereo partly drawn), the TGI was more than 100 µM with A498 renal; more than 100 µM in the assay with CAKI-1 renal; more than 100 µM in the assay with HCC-2998 colon; more than 100 µM with HCT-15 colon; more than 100 µM in the assay on K-562 leukemia; 79.8 µM with M14 melanoma. The TGI in the assay with NCI-H522 lung, in the assay with RXF 393 renal, in the assay on SF-295 CNS and with SR leukemia was more than 100 µM throughout.
Consider `COc1ccc(-c2nc(-c3cn(C)c4ncccc34)cs2)cc1`, for which the GI50 in the assay on A498 renal is 0.776 µM; in the assay with CAKI-1 renal, 18.2 µM; in the assay on HCC-2998 colon, 80.6 µM; with HCT-15 colon, 25.3 µM; with K-562 leukemia, 5.05 µM; with M14 melanoma, 28.2 µM. In addition, the GI50 in the assay with NCI-H522 lung is 14.9 µM; in the assay with RXF 393 renal, 55.2 µM; in the assay with SF-295 CNS, 20.3 µM; in the assay with SR leukemia, 9.7 µM. Further, the TGI with A498 renal was 93.9 µM; with CAKI-1 renal, more than 100 µM; with HCC-2998 colon, more than 100 µM; in the assay on HCT-15 colon, more than 100 µM; with K-562 leukemia, more than 100 µM; with M14 melanoma, more than 100 µM. The TGI with NCI-H522 lung, in the assay on RXF 393 renal, with SF-295 CNS and with SR leukemia was more than 100 µM throughout.
Take `CCN(CC)CCCCCCCNc1c2ccc(Cl)cc2nc2ccc(OC)cc12`: the GI50 with A498 renal was 1.2 µM; with CAKI-1 renal, 1.55 µM; in the assay on HCC-2998 colon it was 1.76 µM; with HCT-15 colon, 0.997 µM; in the assay with K-562 leukemia, 0.258 µM; with M14 melanoma it was 1.34 µM. Besides, the GI50 was 1.2 µM in the assay with NCI-H522 lung, 0.84 µM in the assay on RXF 393 renal, 0.701 µM in the assay with SF-295 CNS and 0.238 µM in the assay on SR leukemia. For the same molecule, the TGI in the assay on A498 renal worked out at 2.51 µM; in the assay with CAKI-1 renal, 4.65 µM; with HCC-2998 colon, 3.22 µM; in the assay with HCT-15 colon it was 6.59 µM; in the assay with K-562 leukemia, 0.835 µM; with M14 melanoma, 2.77 µM. In addition, the TGI in the assay on NCI-H522 lung was 2.83 µM; with RXF 393 renal, 2.35 µM; with SF-295 CNS, 2.37 µM; with SR leukemia, 0.634 µM.
Consider `O=S1(=O)C[C@@H](O)[C@H](O)CS1`, for which the TGI with A498 renal, in the assay with CAKI-1 renal, in the assay with HCC-2998 colon, in the assay on K-562 leukemia, with M14 melanoma and with NCI-H522 lung was more than 100 µM throughout. For the same molecule, the TGI with RXF 393 renal, in the assay with SF-295 CNS and in the assay with SR leukemia was more than 100 µM in each case.
